The target of one data set is JAK3 (Homo sapiens (Human), UniProt P52333). Put plainly: Jak biochemical HTRF enzyme assay, JAK3. The settings on record: Table 1. An excerpt:
Jak Biochemical HTRF Enzyme Assay Protocol
The ability of compounds to inhibit the catalytic activity of JAK1, JAK2, JAK3, and TYK2 was quantified using a recombinant purified GST-tagged catalytic domain for each enzyme (InVitrogen/Life Technologies/ThermoFisher, catalogue #s: JAK1, #M4290; […]) in an HTRF format biochemical assay. […] Subsequent reagent additions employed an Agilent Bravo automated liquid handler. […] After normalization to untreated controls, the percent inhibition of the HTRF signal at each compound concentration was calculated. The plot of percent inhibition versus the log value of compound concentration was done as described above for cell assays to calculate IC50 values.
In general terms: In TR-FRET formats the signal depends on donor and acceptor labels being close together.

A short description of data set [1]: Dog pharmacokinetics after IV administration. Conditions: in vivo, 0.25 mg/kg I.V. The protocol:
Examples of the instant invention were evaluated in JAK1, JAK2, and JAK3 in vitro binding assays, and IL-6 and EPO cell pathway engagement assays, as described above. Table 1 tabulates the IC50 values of the instant invention in the JAK1, JAK2, and JAK3 in the in vitro binding assays, and the IL-6 and EPO cell pathway engagement assays, as well as the ratio of the JAK2/JAK1 IC50s, JAK3/JAK1 IC50s, and the EPO/IL-6 IC50s. Table 2 tabulates the pharmacokinetic parameters of the instant invention in the dog after IV administration.

Data set [2] has as its system Interleukin 6 (IL6)—JAK1/JAK2-STAT4 Pathway. Put plainly: IL6 CellSensor cell pathway engagement assay (SIE-bla ME-180 cells). The settings on record: for IC50: Homo sapiens; for EPO/IL-6: Table 3, comparative examples.
Text: Inhibition of the activity of JAK1 and JAK2 kinases in intact cells was quantified in antagonist mode using CellSensor® transcriptional reporter technology (Life Technologies/ThermoFisher: https://www.thermofisher.com/us/en/home/industrial/pharma-biopharma/drug-discovery-development/target-and-lead-identification-and-validation/pathway-biology/cellular-pathway-analysis/cellsensor-cell-lines.html), in two independent cell lines engineered to detect IL4, IL6 and EPO signaling. In brief, CellSensor® cell lines (see details below for each assay) carrying a stably integrated β-Lactamase reporter gene under control of specific cis-regulatory STAT elements responsive to the pathway being monitored were pre-treated with test compounds serially diluted in DMSO (see preparation and dosing of compounds and agonist cytokines section). […] Incubation with compounds, cytokines and LiveBLAzer™ were carried out at 37° C. in a tissue culture incubator maintained at 90% humidity and 5% CO2.
Interleukin 6 (IL6)—JAK1/JAK2-STAT4 Pathway:
CellSensor™ SIE-bla ME-180 cells carrying a stably integrated β-Lactamase reporter gene under control of the Sis-Inducible Element (SIE).
Each CellSensor® cell line was subsequently plated as per supplier's instructions (30,000 cells in 32 μL/well) and mixed with compound. Following a 60 minute incubation cells were subsequently stimulated by addition of 8 μL of cognate cytokine (EC80 dose of IL6 and EPO) and incubated for an additional 3 hours, before adding LiveBLAzer™-FRET B/G substrate.
The subject of data set [3] is Erythropoietin (EPO)—JAK2-STAT5 Pathway. In words: EPO CellSensor cell pathway engagement assay (irf1-bla TF-1 cells). The format is cell-based. Conditions: Homo sapiens, Table 1. The protocol:
In brief, CellSensor® cell lines (see details below for each assay) carrying a stably integrated β-Lactamase reporter gene under control of specific cis-regulatory STAT elements responsive to the pathway being monitored were pre-treated with test compounds serially diluted in DMSO (see preparation and dosing of compounds and agonist cytokines section). […] Incubation with compounds, cytokines and LiveBLAzer™ were carried out at 37° C. in a tissue culture incubator maintained at 90% humidity and 5% CO2.
CellSensor irf1-bla TF-1 cells carry a stably integrated β-Lactamase reporter gene under control of the STAT5 Response Elements present in the Interferon Regulatory Factor I (IRF1) gene promoter.

A short description of data set [4]: IL-31 induced itching model. The format is in vivo, Beagle dogs. Conditions: dog, in vivo, 1 mg/kg body weight; Beagle dogs, dosing before cIL-31 challenge; read-out: approximate Tmax.
The test system of another data set is cIL-31 induced pruritus. Put plainly: IL-31 induced itching model. Type of data set: in vivo, Beagle dogs.
A short description of data set [5]: 6-week pilot target animal safety study. The settings on record: for NOAEL at 6 weeks: dog, in vivo, po.
Experimental: The drug was administered orally, as a compressed tablet, twice per day for 6 weeks to dogs at 1, 3, and 5 times the maximum exposure dose of 0.5 mg/kg, or once per day for 6 weeks to dogs at 5 times the maximum exposure dose of 1 mg/kg.
The next data set addresses JAK1 (Homo sapiens (Human), UniProt P23458). Put plainly: Jak biochemical HTRF enzyme assay, JAK1.
For data set [6] the following is noted: dogs with allergic or atopic dermatitis; cited from earlier work.
The conditions of data set [7]: dogs, higher doses; cited from earlier work.
Setting [8] is: ME-180, read-out: IL-6 IC50 (nM).
Setting [9] is: 0.5 mg/kg body weight, second study.
The mark [10] stands for this setting: dogs, oral, 6 weeks, up to 5 times maximum exposure dose.

Like-named read-outs stand apart in the source and are kept apart here. Where only a bound is given, the exact number is not on record here.

Sequence of JAK1 (P23458 875-1153): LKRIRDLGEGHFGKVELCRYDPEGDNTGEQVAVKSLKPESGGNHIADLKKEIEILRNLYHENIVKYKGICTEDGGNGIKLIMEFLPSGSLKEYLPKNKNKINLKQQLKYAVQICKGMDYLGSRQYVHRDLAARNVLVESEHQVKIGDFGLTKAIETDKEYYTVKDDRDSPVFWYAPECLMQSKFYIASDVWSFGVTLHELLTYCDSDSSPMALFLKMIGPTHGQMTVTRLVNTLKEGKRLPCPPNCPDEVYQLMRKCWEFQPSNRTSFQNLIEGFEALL
Sequence of JAK3 (P52333 822-1111): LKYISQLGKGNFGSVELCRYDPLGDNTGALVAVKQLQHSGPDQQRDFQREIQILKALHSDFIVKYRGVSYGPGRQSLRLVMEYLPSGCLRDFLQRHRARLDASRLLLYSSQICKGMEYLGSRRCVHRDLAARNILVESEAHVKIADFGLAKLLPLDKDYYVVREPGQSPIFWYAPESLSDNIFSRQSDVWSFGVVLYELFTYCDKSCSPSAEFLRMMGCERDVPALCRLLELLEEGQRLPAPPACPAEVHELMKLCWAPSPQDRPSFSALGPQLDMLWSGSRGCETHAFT

Usually AUC stands for concentration integrated over time. Read a high AUC as high exposure. Broadly, the clearance is the volume of plasma or blood freed of the substance per unit of time. A lower clearance goes with a low capacity for elimination. As usually defined, the half-life is the time needed for the level to fall by half in the phase considered. Lower therefore signals rapid decline. As usually defined, the Tmax is the time at which the peak concentration occurs. The NOAEL is the highest tested level that showed no adverse finding. Turning to `COc1cc(Nc2nn([C@H]3COCC[C@@H]3C#N)cc2C(N)=O)cc(F)n1` (single isomer, unassigned) [Compound 1, 1-((3R,4S) or (3S,4R)-4-cyanotetrahydro-2H-pyran-3-yl)-3-((2-fluoro-6-methoxypyridin-4-yl)amino)-1H-pyrazole-4-carboxamide], the IC50 against JAK3 was 1130 nM; in data set [2] (setting [8]), 41.8 nM; in data set [3], 460 nM; against JAK1 it was 0.43 nM. The exposure (AUC) in data set [1] came out at 1.29 µM·h. For the same molecule, the clearance in [1] was 9.42 mL/min/kg. Also, in data set [1], the half-life was 4.38 h. In addition, the Vd in data set [1] (read-out: Vdss) came out at 1.95 L/kg. For the same molecule, the Tmax in [4] was roughly 2 h. Further, the “suppression of cIL-31 induced pruritus” value in the data set with cIL-31 induced pruritus (0.05 mg/kg body weight (sentence prints 0.5), second study) is “not”; in the data set with cIL-31 induced pruritus (0.1 mg/kg body weight, second study), “not”; in the data set on cIL-31 induced pruritus (setting [9]), “significantly suppressed”; in the data set on cIL-31 induced pruritus (1 mg/kg body weight, dosed 2 h prior to cIL-31 challenge, first study) it was “significantly suppressed”. Further, the “magnitude of effect compared with Apoquel” value in the data set on cIL-31 induced pruritus (setting [9]) was “similar”. In addition, in the data set on cIL-31 induced pruritus (1 mg/kg body weight, first study), the “magnitude of pruritus suppression compared with Apoquel” value is “similar”. In addition, the no-observed-adverse-effect level (NOAEL) at 6 weeks in [5] came out at 2.5 mg/kg; in data set [5] (5 mg/kg once per day) it was 5 mg/kg/day. Besides, in [5] (setting [10]), the “test article related effects in clinical observations, fecal observations, body weight, food consumption, physical examination, blood pressure, ophthalmology, cardiology” value is reported as “No test article related effects were observed”. The “test article related effects in postmortem evaluations (organ weights, macroscopic and microscopic findings)” value in data set [5] (setting [10]) is “No test article related effects were observed”.

With `CN(C)[C@H]1CC[C@H](n2cc(C(N)=O)c(Nc3ccc(Cl)cc3)n2)[C@@H](C#N)C1` (single isomer, unassigned) [Reference Compound A, 3-[(4-chlorophenyl)amino]-1-[(1S,2S,4S or 1R,2R,4R)-2-cyano-4-(dimethylamino)cyclohexyl]-1H-pyrazole-4-carboxamide], the IC50 against JAK1 (Table 3, comparative examples) is 1.67 nM.

On to `CS(=O)(=O)c1ccc(Nc2nn([C@H]3CCCC[C@@H]3C#N)c3cc[nH]c(=O)c23)cc1` [B, (1S,2S)-2-(3-{[4-(methylsulfonyl)phenyl]amino}-4-oxo-4,5-dihydro-1H-pyrazolo[4,3-c]pyridin-1-yl)cyclohexanecarbonitrile], for which the “potency in IL6 CellSensor assay relative to EPO CellSensor assay” value in data set [2] (IL6 versus EPO assay) is “within two-three fold”.

Consider `COc1cc(Nc2nn([C@@H]3COCC[C@H]3C#N)cc2C(N)=O)cc(F)n1` [Enantiomer of 1], for which the IC50 is greater than 1250 nM against JAK3, 2440 nM in data set [2] (setting [8]), 9480 nM in data set [3] and 17.7 nM at JAK1 (Table 1).

Take `N#CCC1(n2cc(-c3ncnc4[nH]ccc34)cn2)CN(C2CCN(C(=O)c3ccnc(C(F)(F)F)c3F)CC2)C1` [INCB39110]: in data set [2] (ME-180, read-out: IL-6 IP (nM)), the IC50 was determined as 97 nM. The EPO/IL-6 in [2] is reported as 5x. At JAK1 (Table 3, comparative examples), this molecule registered an IC50 of 0.3 nM and a JAK2/1 of 10x.

With `N#CC[C@H](C1CCCC1)n1cc(-c2ncnc3[nH]ccc23)cn1` [JAKAFI], the IC50 in data set [2] (ME-180, read-out: IL-6 IP (nM)) turned out to be 40 nM. Further, the EPO/IL-6 in data set [2] worked out at 0.2x. At JAK1, the JAK2/1 came to 0.7x.

As for `CNS(=O)(=O)C[C@H]1CC[C@H](N(C)c2ncnc3[nH]ccc23)CC1` [Oclacitinib], the IC50 in data set [2] (ME-180, read-out: IL-6 IP (nM)) stood at 230 nM. In data set [2], this molecule had an EPO/IL-6 of 2.4x. Besides, in [6], the “effect on pruritus and lesions” value is “rapid amelioration of pruritus and reduces lesions”. Also, the “effect on hematocrit, hemoglobin and reticulocyte counts” value in data set [7] is “reduction”. On JAK1 (Table 3, comparative examples), the IC50 is 3.4 nM and the JAK2/1 worked out at 2.0x.

(Values after US10875847B2, “Aminopyrazoles as selective janus kinase inhibitors” (Intervet Inc., priority 2016, dated 2020).)
